Data set [1] deals with B. subtilis ATCC 6633. Kind of data set: Qualitative antimicrobial screening, adapted disk diffusion. It counts as cell-based, Bacillus subtilis. Also noted: zone of inhibition: dose or concentration left out as unconfirmed. The settings on record: for zone of inhibition at 5000 µg/mL (stock): ATCC6633, read-out: growth inhibition diameter. On the procedure: (§1) The antimicrobial activities of the synthesized compounds were determined against ATCC reference and clinical microbial strains, i.e., Bacillus subtilis ATCC 6633, Staphylococcus aureus ATCC 25923, Escherichia coli ATCC 25922, Klebsiella pneumoniae 350, Pseudomonas aeruginosa 1671 and Candida albicans ATCC 10231, using as positive controls the antibiotic ticarcillin and the antifungal agent fluconazole. Microbial suspensions of 1.5 × 10^8 CFU/mL corresponding to 0.5 McFarland density obtained from 15–18 h bacterial cultures developed on solid media were used in our experiments. The antimicrobial activity was tested on Mueller-Hinton Agar (MHA) medium, while a Yeast Peptone Glucose (YPG) medium was used in case of C. albicans. The obtained compounds were solubilized in DMSO and the starting stock solution was of 5000 μg/mL concentration. The qualitative screening was performed by an adapted disk diffusion method as previously reported.
In general terms: Agar diffusion results depend on both activity and mobility in agar.

Data set [2] relates to B. subtilis ATCC 6633. Kind of data set: MIC by liquid medium microdilution. It counts as cell-based, Bacillus subtilis. The settings on record: B. subtilis ATCC 6633, 24 h at 37 °C. The method, then: as §1
(§2) The quantitative assay of the antimicrobial activity was performed by the liquid medium microdilution method, in 96 multi-well plates, in order to establish the minimal inhibitory concentration (MIC). In this purpose, serial two-fold dilutions of the compounds ranging between 5000 and 4.8 µg/mL were performed in a 200 µL volume of broth and each well was seeded with 50 µL of microbial inoculum. Sterility control (wells containing only culture medium) and culture controls (wells containing culture medium seeded with the microbial inoculum) were used. The influence of the DMSO solvent was also quantified in a series of wells containing DMSO [36], diluted accordingly with the dilution scheme used for the compounds and for the positive controls.
On the technique in general: Broth dilution looks for growth in wells or tubes with falling amounts of substance.

In data set [3] the test system is S. aureus ATCC 25923. Kind of data set: Antibiofilm activity (MBEC), micro-titer method on plastic inert substratum. As to conditions: S. aureus ATCC 25923 biofilm on plastic substratum. It counts as cell-based, Staphylococcus aureus. On the procedure:
(§3) The assessment of the new compounds influence on the microbial ability to colonize the plastic inert substratum was performed by the micro-titer method, following previously described protocols. The absorbance at 490 nm was measured with an LB 911 ELISA reader (Apollo, Berthold Technologies GmbH & Co. KG, Bad Wildbad, Germany). All biological experiments were performed in triplicates.

In data set [4] the test system is S. aureus ATCC 25923. Kind of data set: MIC by liquid medium microdilution. It counts as cell-based. The settings on record: Staphylococcus aureus. On the procedure:
as §1, §2

The subject of data set [5] is C. albicans ATCC 10231. Kind of data set: MIC by liquid medium microdilution. It counts as cell-based. As to conditions: Candida albicans. The method, then:
as §1, §2

Data set [6] concerns E. coli ATCC 25922. Put plainly: MIC by liquid medium microdilution. It counts as cell-based. The settings on record: Escherichia coli. The method, then:
as §1, §2

For data set [7], the system named is C. albicans ATCC 10231. Put plainly: Antibiofilm activity (MBEC), micro-titer method on plastic inert substratum. Type of data set: cell-based, Candida albicans. As to conditions: C. albicans ATCC 10231 biofilm on plastic substratum. On the procedure:
as §3

Data set [8] relates to E. coli ATCC 25922. Put plainly: Qualitative antimicrobial screening, adapted disk diffusion. Type of data set: cell-based, Escherichia coli. On the set-up: zone of inhibition: dose or concentration left out as unconfirmed. As to conditions: for zone of inhibition at 5000 µg/mL (stock): ATCC25922, read-out: growth inhibition diameter. The method, then: as §1
For data set [9], the system named is B. subtilis ATCC 6633. Put plainly: Antibiofilm activity (MBEC), micro-titer method on plastic inert substratum. As to conditions: B. subtilis ATCC 6633 biofilm on plastic substratum. It counts as cell-based, Bacillus subtilis. On the procedure:
as §3

The nature of data set [10]: Annexin V-FITC/propidium iodide apoptosis analysis by flow cytometry. It counts as cell-based. As to conditions: human, HCT8 cells, Annexin V-FITC/PI, read-out: viable cells (Q4). On the procedure:
(§4) For the in vitro assessment of the cytotoxic effect, the HCT8 cells and the CellTiter Assay kit (Promega, Madison, WI, USA) and Annexin V-FITC Apoptosis Detection Kit I (BD Bioscience Pharmingen, Franklin Lakes, NJ, USA) were used. Briefly, for CellTiter Assay, 1 × 10^4 cells/well were plated in 96 well plate and 24 h after, were treated with the new compound at final concentration between 400 µg/mL–10 µg/mL. The viability was evaluated after 24 h by adding CellTiter aqueous solution and reading to spectrophotometer according to the manufacturer indications. The IC50 were calculated from the percent of viability reported to untreated cells using on line tools https://www.aatbio.com/tools/ic50-calculator. For Annexin V-FITC Apoptosis Detection Kit I, 5 × 10^5 cells were seeded in 3.5 cm diameter Petri dish and treated with 100 µg/mL compounds solution for 24 h. The total cells were resuspended in 100 µL of binding buffer, and stained with 5 µL Annexin V-FITC and 5 µL propidium iodide for 10 min in dark. At least 10,000 events from each sample were acquired using a flow cytometer (Beckman Coulter, Indianapolis, IN, USA). The percentage of cells affected by the treatment was determined by subtracting the percentage of apoptotic/necrotic cells in the untreated population from percentage of apoptotic cells in the treated population.
(In general: In flow cytometry, cells or beads pass a laser one at a time.)

In data set [11] the test system is K. pneumoniae 1771. Kind of data set: Qualitative antimicrobial screening, adapted disk diffusion. On the set-up: zone of inhibition: dose or concentration left out as unconfirmed. Type of data set: cell-based, Klebsiella pneumoniae. As to conditions: for zone of inhibition at 5000 µg/mL (stock): Klebsiella pneumoniae, K. pneumoniae 1771, adapted diffusion assay, read-out: growth inhibition diameter.

The test system of data set [12] is S. aureus ATCC 25923. Described as above. Type of data set: cell-based, Staphylococcus aureus. On the set-up: zone of inhibition: dose or concentration left out as unconfirmed. As to conditions: Staphylococcus aureus; for zone of inhibition at 5000 µg/mL (stock): ATCC25923, S. aureus ATCC 25923, adapted diffusion assay, read-out: growth inhibition diameter. On the procedure:
as §1

Data set [13] is described as follows: Cytotoxicity, CellTiter Assay. The settings on record: human, HCT8 cells, 400–10 µg/mL tested. It counts as cell-based. The method, then:
as §4

For data set [14], the system named is P. aeruginosa ATCC 27853. Kind of data set: Qualitative antimicrobial screening, adapted disk diffusion. The settings on record: Pseudomonas aeruginosa; for zone of inhibition at 5000 µg/mL (stock): ATCC27853, P. aeruginosa ATCC 27853, adapted diffusion assay, read-out: growth inhibition diameter. On the set-up: zone of inhibition: dose or concentration left out as unconfirmed. Type of data set: cell-based.

Data set [15] has as its system E. coli ATCC 25922. Put plainly: Antibiofilm activity (MBEC), micro-titer method on plastic inert substratum. It counts as cell-based, Escherichia coli. As to conditions: E. coli ATCC 25922 biofilm on plastic substratum. The method, then: as §3
Data set [16] has as its system C. albicans ATCC 10231. Put plainly: Qualitative antimicrobial screening, adapted disk diffusion. It counts as cell-based, Candida albicans. On the set-up: zone of inhibition: dose or concentration left out as unconfirmed. On the procedure: as §1
Where [17] appears, read: C. albicans ATCC 10231, adapted diffusion assay.
Setting [18] is: Bacillus subtilis, B. subtilis ATCC 6633, adapted diffusion assay.
The mark [19] stands for this setting: Bacillus subtilis, ATCC6633, 24 h, read-out: MIC.
Setting [20] is: ATCC25923, S. aureus ATCC 25923, 24 h at 37 °C, read-out: MIC.
The mark [21] stands for this setting: ATCC25922, E. coli ATCC 25922, 24 h at 37 °C, read-out: MIC.
The mark [22] stands for this setting: Escherichia coli, E. coli ATCC 25922, adapted diffusion assay.

Converted amounts (≈) assume the structure as drawn. Like-named read-outs stand apart in the source and are kept apart here.

As for `Cc1cccc(NC(=O)ON=C2c3ccccc3COc3ccccc32)c1` [Compound 7a, 6,11-Dihydrodibenz[b,e]oxepin-11(6H)one O-(3-tolyl-carbamoyl)oxime], the growth inhibition diameter entry in data set [1] (B. subtilis ATCC 6633, adapted diffusion assay) is “anti-B. subtilis”; in data set [16] (setting [17]), “anti-C. albicans activity”. Besides, the zone of inhibition in data set [1] (Bacillus subtilis, ATCC6633, read-out: growth inhibition diameter) is 8 mm; in [8] (Escherichia coli, ATCC25922, read-out: growth inhibition diameter), 0 mm; in [11] (Klebsiella pneumoniae, 1771, read-out: growth inhibition diameter) it was 0 mm; in [12] (ATCC25923, read-out: growth inhibition diameter) it was 0 mm; in [14] (ATCC27853, read-out: growth inhibition diameter), 0 mm; in data set [16] (Candida albicans, ATCC10231, read-out: growth inhibition diameter), 8 mm. In addition, the MIC in data set [2] was 4.8 µg/mL (≈ 13.4 µM); in data set [2] (Bacillus subtilis, ATCC6633, 24 h), 4.8 to 39 µg/mL (≈ 13.4 to 109 µM); in data set [4] (ATCC25923, 24 h) it was above 5000 µg/mL; in [5] (ATCC10231, 24 h) it was 4.8 µg/mL (≈ 13.4 µM); in data set [6] (ATCC25922, 24 h), above 5000 µg/mL. Further, the MBEC was determined as 39 µg/mL in [3], 39 µg/mL in data set [7], 156 µg/mL in data set [9] and 625 µg/mL in [15]. Moreover, the viability at 24 h, 100 µg/mL in data set [10] was found to be 84.2%. Besides, 264 µg/mL (≈ 737 µM) corresponded to half-maximal inhibition in data set [13] (IC50 at 24 h).
For `CC1(C)S[C@@H]2[C@H](NC(=O)[C@H](C(=O)O)c3ccsc3)C(=O)N2[C@H]1C(=O)O` [Ticarcillin, ticarcillin, reference compound], the zone of inhibition at 5000 µg/mL (stock) came out at 15 mm in data set [1] (setting [18]); 24 mm in data set [8] (setting [22]); 0 mm in data set [11]; 21 mm in data set [12]; 17 mm in data set [14]. The MIC in data set [2] (setting [19]) was determined as 78 µg/mL (≈ 203 µM); in data set [4] (setting [20]), 9.76 µg/mL (≈ 25.4 µM); in data set [6] (setting [21]), 19.5 µg/mL (≈ 50.7 µM). The values for the MBEC in data set [3], in data set [9] and in [15] were 156 µg/mL, 156 µg/mL and 625 µg/mL, respectively.
On to `O=C(Nc1cccc(Cl)c1)ON=C1c2ccccc2COc2ccccc21` [Compound 7c, 6,11-Dihydrodibenz[b,e]oxepin-11(6H)one O-(3-chlorophenyl-carbamoyl)oxime], for which the zone of inhibition at 5000 µg/mL (stock) in [1] (setting [18]) came to 0 mm; in data set [8] (setting [22]), 4 mm; in data set [11], 0 mm; in data set [12] it was 0 mm; in data set [14], 0 mm; in data set [16] (Candida albicans, ATCC10231, C. albicans ATCC 10231, adapted diffusion assay, read-out: growth inhibition diameter), 8 mm. The MIC in data set [2] (setting [19]) is above 5000 µg/mL; in [4] (setting [20]), above 5000 µg/mL; in data set [5] (ATCC10231, C. albicans ATCC 10231, 24 h at 37 °C, read-out: MIC), 1250 µg/mL (≈ 3300 µM); in [6] (setting [21]) it was 1250 µg/mL (≈ 3300 µM). In addition, the MBEC in data set [7] is 4.8 µg/mL. For the same compound, the growth inhibition diameter result in data set [8] (E. coli ATCC 25922, adapted diffusion assay) was “active against”; in data set [16] (setting [17]) it was “active against”. Moreover, the viability at 24 h, 100 µg/mL in data set [10] was 89.8%. Half-maximal inhibition in data set [13] (IC50 at 24 h) was put at 304 µg/mL (≈ 803 µM).

The term MIC denotes the least concentration at which growth counts as inhibited. As a reminder, the IC50 is the concentration that gives 50% inhibition.

(Values after paper PMC7024208, “In Silico and In Vitro Experimental Studies of New Dibenz[b,e]oxepin-11(6H)one O-(arylcarbamoyl)-oximes Designed as Potential Antimicrobial Agents” (Molecules, 2020).)
